Counter-ions that a name gives are not always drawn.
What was measured:
[1] = target: T1, fluo-Aβ1-40 (Homo sapiens, UniProt P05067); assay: Aβ Aggregation Assay (Synthaloid plates, fluo-Aβ1-40); assay type: biochemical; settings: 10 μM test compound, 100 nM fluo-Aβ1-40, 2.5 hr at room temperature; higher % = greater effectiveness at preventing aggregation
T1 construct: added 100 nM of fluo-Aβ1-40 in 100 μl
Experimental: Aβs are known to form aggregates leading to the formation of amyloid plaques that are characteristic of Alzheimer's disease.
This aggregation assay was validated using both ^125I-Aβ1-40 and fluo-Aβ1-40 in a buffer containing 50 mM HEPES, pH 7.4, 0.1% BSA, 10% FCS and protease inhibitors.
To each well of a 96-well Synthaloid plate was added 100 nM of fluo-Aβ1-40 in 100 μl. To each well was then added 10 μM of test compound. The plate was then allowed to incubate for 2.5 hr at room temperature. At the end of the incubation, unbound protein in the wells was removed by three washes using the buffer as described above. The amount of bound protein (which represents the amount of Aβ aggregation) was measured either by fluorescence measurements.
Higher fluorescence values relative to vehicle wells were interpreted as an indication of greater Aβ aggregation. […] Higher % values in the data in Table 4 below, below indicates greater effectiveness at preventing aggregation.
(§1) Both the Aβ aggregation assay as described in Example 55, particularly as run using the ^125I-Aβ1-40, and the % inhibition of AcH release assay as described in Example 56, were highly variable on a run-to-run basis. However, the relative activities of the tested compounds were reproducible.

[2] = tested on: Synaptosomes from guinea pig hippocampus; assay: % Inhibition of AcH Release Assay (K+-evoked 3H-acetylcholine release); assay type: cell-based; settings: synaptosomes pre-treated with 10 μM test compound prior to 65 mM K+ stimulation
Experimental: Synaptosomes from guinea pig hippocampus were incubated with 0.1 μM ^3H-choline and then subjected to repeated washes with buffer to remove unincorporated ^3H-choline. The synaptosomes were then treated with 65 mM K^+ for 30 seconds to elicit 3H-acetylcholine release.
To determine if a test compound will inhibit acetylcholine release, the synaptosomes were pre-treated with 10 μM of the test compound prior to the K+ stimulation. The decrease or increase in acetylcholine release was then measured by superfusion.
as §1

T1 sequence (P05067 672-711): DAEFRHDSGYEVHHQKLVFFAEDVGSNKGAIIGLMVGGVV

| SMILES | Aβ aggregation inhibition (%) [1] [%] | Inhibition of acetylcholine release [2] [%] |
| --- | --- | --- |
| O=C1OC2(CN3CCC2CC3)C(=O)N1c1cccc(C(F)(F)F)c1 (stereo not drawn) [Compound 1, 3′-(3-trifluoromethylphenyl)-quinuclidine-3-spiro-5′-oxazolidine-2′,4′-dione trifluoroacetate salt] | 100 | 36 |
| Cc1ccc(N2C(=O)OC3(CN4CCC3CC4)C2=O)cc1 (stereo not drawn) [Compound 2, 3′-(4-methylphenyl)-quinuclidine-3-spiro-5′-oxazolidine-2′,4′-dione trifluoroacetate salt] | 44 | 74 |
| COc1ccc(N2C(=O)OC3(CN4CCC3CC4)C2=O)cc1 (stereo not drawn) [Compound 3, 3′-(4-methoxyphenyl)-quinuclidine-3-spiro-5′-oxazolidine-2′,4′-dione trifluoroacetate salt] | 100 | 27 |
| COc1ccc(N2C(=O)OC3(CN4CCC3CC4)C2=O)c(C)c1 (stereo not drawn) [Compound 4, 3′-(4-methoxy-2-methylphenyl)-quinuclidine-3-spiro-5′-oxazolidine-2′,4′-dione trifluoroacetate salt] | 95 | 36 |
| O=C1OC2(CN3CCC2CC3)C(=O)N1c1ccc(Cl)c(Cl)c1 (stereo not drawn) [Compound 5, 3′-(3,4-dichlorophenyl)-quinuclidine-3-spiro-5′-oxazolidine-2′,4′-dione trifluoroacetate salt] | 98 | 27 |
| O=C1OC2(CN3CCC2CC3)C(=O)N1c1cccc([N+](=O)[O-])c1 (stereo not drawn) [Compound 6, 3′-(3-nitrophenyl)-quinuclidine-3-spiro-5′-oxazolidine-2′,4′-dione trifluoroacetate salt] | 21 | 64 |
| O=C1OC2(CN3CCC2CC3)C(=O)N1c1cc(Cl)cc(Cl)c1 (stereo not drawn) [Compound 7, 3′-(3,5-dichlorophenyl)-quinuclidine-3-spiro-5′-oxazolidine-2′,4′-dione trifluoroacetate salt] | 62 | 70 |
| O=C1OC2(CN3CCC2CC3)C(=O)N1c1cc(C(F)(F)F)cc(C(F)(F)F)c1 (stereo not drawn) [Compound 8, 3′-(3,5-bis(trifluoromethyl)phenyl)-quinuclidine-3-spiro-5′-oxazolidine-2′,4′-dione trifluoroacetate salt] | 0 | 77 |
| O=C1OC2(CN3CCC2CC3)C(=O)N1c1ccccc1F (stereo not drawn) [Compound 9, 3′-(2-fluorophenyl)-quinuclidine-3-spiro-5′-oxazolidine-2′,4′-dione trifluoroacetate salt] | 100 | 16 |
| O=C1OC2(CN3CCC2CC3)C(=O)N1c1cccc(Cl)c1 (stereo not drawn) [Compound 10, 3′-(3-chlorophenyl)-quinuclidine-3-spiro-5′-oxazolidine-2′,4′-dione trifluoroacetate salt] | 50 | 60 |
| Cc1ccc(C)c(N2C(=O)OC3(CN4CCC3CC4)C2=O)c1 (stereo not drawn) [Compound 11, 3′-(2,5-dimethyphenyl)-quinuclidine-3-spiro-5′-oxazolidine-2′,4′-dione trifluoroacetate salt] | 0 | 71 |
| O=C1OC2(CN3CCC2CC3)C(=O)N1c1cc(Cl)ccc1Cl (stereo not drawn) [Compound 12, 3′-(2,5-dichlorophenyl)-quinuclidine-3-spiro-5′-oxazolidine-2′,4′-dione trifluoroacetate salt] | 85 | 17 |
| CCOC(=O)c1cccc(N2C(=O)OC3(CN4CCC3CC4)C2=O)c1 (stereo not drawn) [Compound 13, 3′-(3-ethoxycarbonylphenyl)-quinuclidine-3-spiro-5′-oxazolidine-2′,4′-dione trifluoroacetate salt] | 100 | 20 |
| COc1cccc(N2C(=O)OC3(CN4CCC3CC4)C2=O)c1 (stereo not drawn) [Compound 14, 3′-(3-methoxyphenyl)-quinuclidine-3-spiro-5′-oxazolidine-2′,4′-dione trifluoroacetate salt] | 42 | 14 |
| O=C1OC2(CN3CCC2CC3)C(=O)N1c1cccc(O)c1 (stereo not drawn) [Compound 15, 3′-(3-hydroxyphenyl)-quinuclidine-3-spiro-5′-oxazolidine-2′,4′-dione trifluoroacetate salt] | 50 | 55 |
| Cc1ccc(N2C(=O)OC3(CN4CCC3CC4)C2=O)cc1C (stereo not drawn) [Compound 16, 3′-(3,4-dimethylphenyl)-quinuclidine-3-spiro-5′-oxazolidine-2′,4′-dione trifluoroacetate salt] | 67 | 44 |
| O=C1OC2(CN3CCC2CC3)C(=O)N1c1ccc(O)cc1 (stereo not drawn) [Compound 18, 3′-(4-hydroxyphenyl)-quinuclidine-3-spiro-5′-oxazolidine-2′,4′-dione trifluoroacetate salt] | 0 | 23 |
| Cc1cc(O)ccc1N1C(=O)OC2(CN3CCC2CC3)C1=O (stereo not drawn) [Compound 19, 3′-(4-hydroxy-2-methylphenyl)-quinuclidine-3-spiro-5′-oxazolidine-2′,4′-dione trifluoroacetate salt] | 0 | 27 |
| Cc1cc(C)cc(N2C(=O)OC3(CN4CCC3CC4)C2=O)c1 (stereo not drawn) [Compound 20, 3′-(3,5-dimethylphenyl)-quinuclidine-3-spiro-5′-oxazolidine-2′,4′-dione trifluoroacetate salt] | 0 | 53 |
| O=C1OC2(CN3CCC2CC3)C(=O)N1c1ccc(F)cc1F (stereo not drawn) [Compound 21, 3′-(2,4-difluorophenyl)-quinuclidine-3-spiro-5′-oxazolidine-2′,4′-dione trifluoroacetate salt] | 1 | 17 |
| Cc1ccc(N2C(=O)OC3(CN4CCC3CC4)C2=O)cc1Cl (stereo not drawn) [Compound 24, 3′-(3-chloro-4-methylphenyl)-quinuclidine-3-spiro-5′-oxazolidine-2′,4′-dione trifluoroacetate salt] | 40 | 44 |
| O=C1OC2(CN3CCC2CC3)C(=O)N1c1cccc(F)c1 (stereo not drawn) [Compound 25, 3′-(3-fluorophenyl)-quinuclidine-3-spiro-5′-oxazolidine-2′,4′-dione trifluoroacetate salt] | 5 | 48 |
| Cc1ccccc1N1C(=O)OC2(CN3CCC2CC3)C1=O (stereo not drawn) [Compound 26, 3′-(2-methylphenyl)-quinuclidine-3-spiro-5′-oxazolidine-2′,4′-dione trifluoroacetate salt] | 45 | 54 |
| Cc1cccc(N2C(=O)OC3(CN4CCC3CC4)C2=O)c1C (stereo not drawn) [Compound 27, 3′-(2,3-dimethylphenyl)-quinuclidine-3-spiro-5′-oxazolidine-2′,4′-dione trifluoroacetate salt] | 35 | 25 |
| CC(C)c1ccccc1N1C(=O)OC2(CN3CCC2CC3)C1=O (stereo not drawn) [Compound 28, 3′-(2-isopropylphenyl)-quinuclidine-3-spiro-5′-oxazolidine-2′,4′-dione trifluoroacetate salt] | 0 | 47 |
| COc1ccc(OC)c(N2C(=O)OC3(CN4CCC3CC4)C2=O)c1 (stereo not drawn) [Compound 29, 3′-(2,5-dimethoxyphenyl)-quinuclidine-3-spiro-5′-oxazolidine-2′,4′-dione trifluoroacetate salt] | 100 | 20 |
| CCOC(=O)CN1C(=O)OC2(CN3CCC2CC3)C1=O (stereo not drawn) [Compound 30, 3′-(2-ethoxycarbonylmethyl)-quinuclidine-3-spiro-5′-oxazolidine-2′,4′-dione hydrochloride] | 100 | 21 |
